pIC50: −log10 of the molar value.
Each compound was assayed against Cholesterol 24-hydroxylase (Homo sapiens, UniProt Q9Y6A2) (assay: CYP46A1 Enzyme Assay).
Method: Briefly, in a 384-well plate format, 10 uL per well of an enzyme-substrate mixture of CYP46A1 (5 uM final concentration) and Testosterone ([…]) were dispensed to wells containing test compound. For CYP46A1 titration, 5 uL per well of serially diluted CYP46A1 (concentrations including 10 uM, 5 uM, and 2.5 uM) and Testosterone ([…]) were dispensed. For Testosterone titration, 5 uL per well of serially diluted Testosterone (concentrations including 10 uM, 5 uM, and 2.5 uM) and CYP46A1 (concentration of 5 uM) were dispensed. The plates were centrifuged at 1000 rpm for 30 seconds, and then sealed and incubated at 37 C. for 30 minutes. The plate was removed from the incubator, and then 10 uL per well of NADPH-generating system were dispensed to initiate the reaction. The plates were incubated at 37 C. for 15 minutes, added with 80 uL per well of 100% methanol consisting 1 ng/ml diclofenac as internal standard, and then transferred for HPLC-MS.

Cholesterol 24-hydroxylase, sequence (Q9Y6A2 whole entry): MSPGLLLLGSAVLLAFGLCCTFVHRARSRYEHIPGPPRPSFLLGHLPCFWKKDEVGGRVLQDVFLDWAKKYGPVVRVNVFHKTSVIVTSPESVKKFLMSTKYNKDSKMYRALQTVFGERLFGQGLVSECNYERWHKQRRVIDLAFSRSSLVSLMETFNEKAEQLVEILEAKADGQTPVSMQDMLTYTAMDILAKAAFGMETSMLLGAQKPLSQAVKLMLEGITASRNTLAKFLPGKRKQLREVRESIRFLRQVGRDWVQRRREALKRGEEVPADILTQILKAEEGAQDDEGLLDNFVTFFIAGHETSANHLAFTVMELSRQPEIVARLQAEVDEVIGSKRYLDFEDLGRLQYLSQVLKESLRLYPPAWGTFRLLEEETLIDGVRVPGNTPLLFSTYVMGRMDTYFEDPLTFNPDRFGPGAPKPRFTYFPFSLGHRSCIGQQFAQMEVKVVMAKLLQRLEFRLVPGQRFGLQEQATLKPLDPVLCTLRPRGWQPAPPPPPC

pIC50, > 7.00:
O=C(c1cccnc1-c1ccncn1)N1CCC(F)([C@H](O)c2ccc(C(F)(F)F)cc2)CC1 [US20230312522, Compound 13]
O=C(c1cccnc1-c1ccncn1)N1CCC(F)([C@@H](O)c2ccc(C(F)(F)F)cc2)CC1 [US20230312522, Compound 14]
O=C(c1cccnc1-c1ccncn1)N1CCC(F)(Cc2ccc(Cl)cn2)CC1 [US20230312522, Compound 18]
O=C(c1cccnc1-c1ccncn1)N1CCC(F)(Cc2ccc(F)cc2F)CC1 [US20230312522, Compound 19]
O=C(c1cccnc1-c1ccncn1)N1CCC(F)(Cc2cc(F)cc(F)c2)CC1 [US20230312522, Compound 20]
O=C(c1cccnc1-c1ccncn1)N1CCC(F)(Cc2ccc(C(F)(F)F)cn2)CC1 [US20230312522, Compound 22]
O=C(c1cccnc1-c1ccncn1)N1CCC(F)(Cc2ccc(C(F)(F)F)nc2)CC1 [US20230312522, Compound 23]
O=C(c1cccnc1-c1ccncn1)N1CCC(F)(Cc2cccc(C(F)(F)F)n2)CC1 [US20230312522, Compound 24]
O=C(c1cccnc1-c1ccncn1)N1CCC(F)(Cc2c(F)cc(F)cc2F)CC1 [US20230312522, Compound 26]
O=C(c1cccnc1-c1ccncn1)N1CCC(F)(Cc2ccc(C(F)(F)F)cc2F)CC1 [US20230312522, Compound 28]
O=C(c1cccnc1-c1ccncn1)N1CCC(F)(Cc2ccc(Cl)cc2)CC1 [US20230312522, Compound 29]
C[C@H](c1cc(F)cc(F)c1)C1(F)CCN(C(=O)c2cccnc2-c2ccncn2)CC1 [US20230312522, Compound 31]
C[C@@H](c1cc(F)cc(F)c1)C1(F)CCN(C(=O)c2cccnc2-c2ccncn2)CC1 [US20230312522, Compound 32]
C[C@H](c1ccc(C(F)(F)F)cc1)C1(F)CCN(C(=O)c2cccnc2-c2ccncn2)CC1 [US20230312522, Compound 33]
C[C@@H](c1ccc(C(F)(F)F)cc1)C1(F)CCN(C(=O)c2cccnc2-c2ccncn2)CC1 [US20230312522, Compound 34]
O=C(c1cccnc1-c1ccncc1)N1CCC(F)(Cc2ccc(C(F)(F)F)nc2)CC1 [US20230312522, Compound 35]
O=C(c1cccnc1-c1ccncc1)N1CCC(F)(Cc2ccc(Cl)cn2)CC1 [US20230312522, Compound 38]
O=C(c1cccnc1-c1ccncn1)N1CCC(F)(Cc2cc(C(F)(F)F)c(Cl)cn2)CC1 [US20230312522, Compound 39]
Cc1ccc(CC2(F)CCN(C(=O)c3cccnc3-c3ccncc3)CC2)nc1 [US20230312522, Compound 43]
O=C(c1cccnc1-c1ccncn1)N1CCC(F)(Cc2ccc(Cl)nc2)CC1 [US20230312522, Compound 46]
O=C(c1cccnc1-c1ccncc1)N1CCC(F)(Cc2ccc(Cl)nc2)CC1 [US20230312522, Compound 47]
O=C(c1cccnc1-c1ccncn1)N1CCC(F)(Cc2ccc(CF)nc2)CC1 [US20230312522, Compound 51]
Cc1cnc(CC2(F)CCN(C(=O)c3cccnc3-c3ccncc3)CC2)cn1 [US20230312522, Compound 52]
O=C(c1cccnc1-c1ccncc1)N1CCC(F)(Cc2ccc(CF)nc2)CC1 [US20230312522, Compound 54]
O=C(c1cccnc1-c1ccncc1)N1CCC(F)(Cc2ccc(C(F)F)nc2)CC1 [US20230312522, Compound 55]
Cc1ccc(CC2(F)CCN(C(=O)c3cccnc3-c3ccncc3)CC2)cn1 [US20230312522, Compound 57]

pIC50, < 6.00:
O=C(c1cccnc1-c1ccncn1)N1CCC(F)(c2ccccc2)CC1 [US20230312522, Compound 8]
O=C(c1cccnc1-c1ccncc1)N1CCC(F)(Cc2cnccn2)CC1 [US20230312522, Compound 45]
O=C(c1cccnc1-c1ccncn1)N1CCC(F)(Cc2ncc(C(F)(F)F)cn2)CC1 [US20230312522, Compound 56]
